Laboratory results reported in patent US8790654B2, “Glycosylceramide adjuvant for saccharide antigens” (Novartis AG, priority 2004, dated 2014).
Entries after “also recorded” stand apart in the source; their conditions may differ.

Legend:
Type in all cases: in vivo
Hib = assay: Hib-specific Ig titre in mice immunised with Hib-HSA conjugate mixed with PBS, α-GalCer or MF59; details: 15 μg Hib-HSA conjugate mixed with α-GalCer, compared with Hib-HSA conjugate and PBS; three immunisations; 1wp2 and 1wp3
Experimental: FIG. 11: Antibody response is enhanced in mice immunised with α-GalCer and Hib-HSA conjugate. […] Each group of mice was immunised three times. The Hib-specific titre was measured 1 week post the second immunisation (1wp2) and 1 week post the third immunisation (1wp3).

[1] = system: S. pneumoniae polysaccharides; assay: S. pneumoniae-specific antibody titres by ELISA in mice immunised with Streptopur with or without α-GalCer
MenC polysaccharide = assay: MenC-specific Ig titre in mice immunised with MenC, MenC+CRM or MenC-CRM conjugate with or without α-GalCer; details: 30 μg MenC-CRM conjugate and α-GalCer, compared with MenC-CRM conjugate and PBS; three immunisations
Experimental: C) Immunisation schedule for mice with different polysaccharides, plain, conjugated or admixed with protein carriers, with and without α-GalCer. Ten groups of wild-type C57BL/6 mice were primed on day 0 with: 1) PBS, 2) 0.1 μg with α-GalCer, 3) 10 μg MenC polysaccharide, 4) 20 μg CRM protein carrier, 5) 30 μg of a MenC-CRM conjugate, 6) 10 μg MenC polysaccharide admixed with CRM protein carrier, or the compositions in 3)-6) and α-GalCer (groups 7-10). Mice were boosted two and four weeks after they were primed with the same composition with which they were primed. Mice were bled 2, 4 and 6 weeks after initial priming (2wp1, 2wp2 and 2wp3) and the levels of antibodies against both the MenC polysaccharide and the CRM carrier were measured.
FIG. 5: α-GalCer enhances the specific antibody response against both the MenC polysaccharide and the CRM protein carrier in a MenC-CRM conjugate. Wild-type mice were primed with 10 μg MenC polysaccharide, 20 μg CRM protein carrier, 10 μg MenC polysaccharide admixed with CRM protein carrier (MenC+CRM), or 30 μg of a MenC-CRM conjugate, or the same compositions with α-GalCer. […]
FIG. 7: Antibody response is enhanced in mice immunised with α-GalCer and MenC-CRM conjugate. […] The MenC-specific titre was measured one week post the second immunisation (1wp2) and one week post third immunisation (1wp3).

MenA polysaccharide = assay: MenA-specific antibody titres in mice immunised with MenA polysaccharide or MenA-CRM conjugate with or without α-GalCer
Experimental: FIG. 6: α-GalCer enhances the immune response to a MenA-CRM conjugate. Mice were immunised with 10 μg MenA polysaccharide or MenA-CRM conjugate with or without α-GalCer. Antibodies titres against the MenA polysaccharide were measured 4, 8 and 12 days post priming. α-GalCer enhanced the immune response to the MenA polysaccharide.

[2] = system: S. pneumoniae-specific B cells; assay: Number of S. pneumoniae-specific B cells in spleens by Elispot; details: mice primed with 0.1 or 1.0 μg α-GalCer and boosted with 11.5 μg Streptopur 12 weeks later, compared with PBS prime and Streptopur boost; Elispot at 18-22 weeks

CCCCCCCCCCCCCCCCCCCCCCCCCC(=O)N[C@@H](CO[C@H]1O[C@H](CO)[C@H](O)[C@H](O)[C@H]1O)[C@H](O)[C@H](O)CCCCCCCCCCCCCC [α-GalCer, α-galactosylceramide]
Hib-specific Ig titres (Hib): enhanced; also recorded: considerably higher
S. pneumoniae specific IgM antibodies (geomean) by age of mice ([1]; 8 days after priming mice of different ages with 3.5 μg Streptopur and 0.1 μg α-GalCer, compared with Streptopur alone): suppresses; also recorded: suppression
S. pneumoniae-specific antibody titres in NKT-deficient mice ([1]; JA18−/−, CD1d−/− and CD1d−/+ mice primed with 3.5 μg Streptopur and 0.1 μg α-GalCer, compared with Streptopur alone, 4, 8, 12 days after priming): no significant difference
S. pneumoniae-specific antibody titers after boost ([1]; mice primed with Streptopur and 0.1 μg α-GalCer and boosted with Streptopur, compared with primed and boosted with Streptopur alone, 8 days after boosting): lower
S. pneumoniae-specific antibody titres (IgM, geomean) ([1]; wild-type C57BL/6 mice primed i.m. with Streptopur and 0.1 μg α-GalCer, compared with Streptopur alone, 4, 8, 12 days after priming): lower; also recorded: reduced
MenC-specific Ig titres (MenC polysaccharide): enhanced; also recorded: significant increase
MenA-specific Ig titres (MenA polysaccharide; MenA-CRM conjugate and α-GalCer, compared with conjugate without α-GalCer, 4, 8, 12 days post priming): enhances; also recorded: increase
Inhibitory action on the response to unconjugated MenA saccharides (MenA polysaccharide; unconjugated MenA polysaccharide with α-GalCer): not observed
Number of S. pneumoniae-specific B cells per 10^6 splenocytes [2]: lower numbers
